# Data: publication PMC5639367, “Structure‐Guided Design of Peptides as Tools to Probe the Protein–Protein Interaction between Cullin‐2 and Elongin BC Substrate Adaptor in Cullin RING E3 Ubiquitin Ligases” (Chemmedchem, 2017)
# Where two headings read alike, the source gives them in different places. Square brackets hold non-standard residues; d marks the D form. Ends that are not written are not given here. Peptide text beside a SMILES is read from it. Chg = N[C@H](C(=O)O)C1CCCCC1; Pen = CC(C)(S)[C@H](N)C(=O)O; Phg = N[C@H](C(=O)O)c1ccccc1; Tle = CC(C)(C)[C@H](N)C(=O)O; Nva = CCC[C@H](N)C(=O)O
# What was measured:
# [1] = target: T1, VBC (Homo sapiens, UniProt P40337+Q15369+Q15370); assay: Biolayer interferometry (BLI) binding of peptides to immobilised VBC
# T1 construct: made in house; host or cells: E. coli BL21(DE3)
# Experimental: Biolayer interferometry: BLI experiments were performed in an Octet RED384 (FòrteBio). Biotinylated VBC (25 μg mL^−1) was immobilized on Super Streptavidin‐coated biosensor (FòrteBio). The experiments were conducted at 25 °C, in 20 mM HEPES pH 7.6, 100 mM NaCl, 1 mM DTT and 0.02 % (v/v) Tween‐20 buffer. The response of the reference tips was subtracted from the signal to account for unspecific binding. The data points were fitted using a 1:1 model. […]
# peptides. Biotinylated VBC was immobilised on the tips and the peptides were tested in a concentration range from 27 µM to 7 mM. The different colours represent the different concentrations and corresponding responses. The assay was performed […]
# Figure S2 – Biolayer interferomery experiments with the alanine scan peptides.
# Biotinylated VBC was immobilised on the tips and the peptides were tested in a concentration range from 27 µM to 7 mM. The different colours represent the different concentrations and corresponding responses. The assay was performed in […]
# leucine replacement versus VBC tested on a concentration-dependent assay. […]
# [2] = Precipitation of peptides in the conditions of the BLI experiment; assay type: physicochemical; details: 20 mM HEPES pH 7.6, 100 mM NaCl, 1 mM DTT, 0.02 % Tween-20, 25 °C; visual
# Experimental: Based on the structural analysis of the Cul2‐VBC interface, we first aimed to recapitulate the interaction using N‐terminal Cul2 peptides varying from three to eleven residues. […] Thus, the next step was to enhance the binding affinity of the peptides toward VBC.
# Biolayer interferometry: BLI experiments were performed in an Octet RED384 (FòrteBio). Biotinylated VBC (25 μg mL^−1) was immobilized on Super Streptavidin‐coated biosensor (FòrteBio). The experiments were conducted at 25 °C, in 20 mM HEPES pH 7.6, 100 mM NaCl, 1 mM DTT and 0.02 % (v/v) Tween‐20 buffer. The response of the reference tips was subtracted from the signal to account for unspecific binding. The data points were fitted using a 1:1 model.
# [3] = target: T2, native interaction between VBC and Cul2 (Homo sapiens, UniProt P40337+Q15369+Q15370); assay: AlphaLISA competition assay to displace Cul2 from VBC; assay type: binding; details: V6×HisBC 500 nM, biotinylated Rbx1-Cul2 150 nM
# T2 construct: made in house; host or cells: E. coli BL21(DE3) for VBC
# Experimental: AlphaLISA: Anti‐His6 acceptor beads and Streptavidin donor beads (PerkinElmer) were used. […] The final volume of each well was 20 μL. The plate was then read in a PHERAstar FS (BMG LABTECH). Each of the competitors was titrated in quadruplicate. The fitting and IC50 determination were performed in GraphPad Prism 7 (GraphPad Software, La Jolla, CA, USA).
# [4] = 8-mer peptide variants replacing Leu3, BLI, biotinylated VBC on Super Streptavidin biosensor, peptides 27 µM to 7 mM, 20 mM HEPES pH 7.6, 100 mM NaCl, 1 mM DTT, 0.02% Tween-20, 25 °C, 1:1 model, read-out: K d
"Kd [1, 4] [µM]",Compound,also measured
–,MSLKPRAV-NH2,Kd [1]: 2100 ± 600 µM
–,MSLKPRVVD [9‐mer],Precipitation in the conditions of the BLI experiment (in words) [2]: formed a white precipitate
–,CSCC[C@H](N)C(=O)N[C@@H](CO)C(=O)N[C@H](C(=O)N[C@@H](CCCCN)C(=O)N1CCC[C@H]1C(=O)N[C@@H](CCCNC(=N)N)C(=O)N[C@H](C(=O)N[C@H](C(N)=O)C(C)C)C(C)C)C(C)(C)S [Peptide J] (H-MS[Pen]KPRVV-NH2),Displacement of Cul2 from VBC in AlphaLISA (in words) [3]: displace Cul2
1900 ± 200,CCC[C@H](NC(=O)[C@H](CO)NC(=O)[C@@H](N)CCSC)C(=O)N[C@@H](CCCCN)C(=O)N1CCC[C@H]1C(=O)N[C@@H](CCCNC(=N)N)C(=O)N[C@H](C(=O)N[C@H](C(N)=O)C(C)C)C(C)C [F] (H-MS[Nva]KPRVV-NH2),–
–,MSLKPRVVDFD [11‐mer],Precipitation in the conditions of the BLI experiment (in words) [2]: formed a white precipitate
8900 ± 700,CSCC[C@H](N)C(=O)N[C@@H](CO)C(=O)N[C@H](C(=O)N[C@@H](CCCCN)C(=O)N1CCC[C@H]1C(=O)N[C@@H](CCCNC(=N)N)C(=O)N[C@H](C(=O)N[C@H](C(N)=O)C(C)C)C(C)C)C1CCCCC1 [I] (H-MS[Chg]KPRVV-NH2),–
900 ± 100,CSCC[C@H](N)C(=O)N[C@@H](CO)C(=O)N[C@H](C(=O)N[C@@H](CCCCN)C(=O)N1CCC[C@H]1C(=O)N[C@@H](CCCNC(=N)N)C(=O)N[C@H](C(=O)N[C@H](C(N)=O)C(C)C)C(C)C)C(C)(C)C [G] (H-MS[Tle]KPRVV-NH2),–
2100 ± 600,CSCC[C@H](N)C(=O)N[C@@H](CO)C(=O)N[C@H](C(=O)N[C@@H](CCCCN)C(=O)N1CCC[C@H]1C(=O)N[C@@H](CCCNC(=N)N)C(=O)N[C@H](C(=O)N[C@H](C(N)=O)C(C)C)C(C)C)c1ccccc1 [H] (H-MS[Phg]KPRVV-NH2),–
3100 ± 200,MSFKPRVV-NH2 [C],–
7400 ± 400,MSYKPRVV-NH2 [D],–
